Measurements taken from publication PMC8037910, “Effect of Chronic Administration of 5-(3-chlorophenyl)-4-Hexyl-2,4 -Dihydro-3H-1,2,4-Triazole-3-Thione (TP-315)—A New Anticonvulsant Drug Candidate—On Living Organisms” (International Journal of Molecular Sciences, 2021).
Where two headings read alike, the source gives them in different places.

What was measured:
[1] = system: 6 Hz psychomotor seizure model; set-up: method as in PMID 32253957; settings: mice, cited from earlier work
[2] = PAMPA BBB (parallel artificial membrane permeability assay); format: in vitro ADME; settings: pH 7.4, 37 °C, donor 20 µg/mL, read-out: Permeability Coefficients (Pe × 10−6) ± SD
Procedure: BBB permeability of the compounds was investigated by using a PAMPA method (parallel artificial membrane permeability assay). The PAMPA system consisted of a 96-well microfilter plate and a 96-well filter plate and was divided into two chambers: a donor at the bottom and an acceptor at the top, separated by a 120-μm-thick microfilter disc coated with BBB lipid solution (Pion, Inc.). The solutions of each compound were prepared in dimethyl sulfoxide (DMSO) at 4 mg/mL concentration and then diluted with Prisma buffer (pH = 7.4) to obtain the donor drug solution with the final nominal concentration of 20 µg/mL. The donor solutions were placed on the donor plate. Acceptor plate contained Brain Sink Buffer (BSB). The plates were put together and incubated at 37 °C for 180 min in a humidity-saturated atmosphere. The concentrations of the compounds were determined with a UV-reader (Multiskan GO, Thermo Scientific) at 254 nm in the donor and acceptor compartments.
The permeability values (Pe) were calculated by using the following equation:(1) −ln(1−CA/Cequilibrium)/S×(1/VD+1/VA)×t where VD: donor volume, VA: acceptor volume, Cequilibrium: equilibrium concentration Cequilibrium=CD×VD+ CA×VA/VD+VA, CD: donor concentration, CA: acceptor concentration, S: membrane area, and t: incubation time (in seconds). High BBB permeation (CNS+) was expected for compounds with Pe > 5.19, whereas low BBB permeation (CNS-) was expected for compounds with Pe < 2.07 [21].

mice [3] = system: mice; set-up: method as in PMID 23291122, PMID 25226229, PMID 25090118; unit not given here; settings: chimney test, cited from earlier work
[4] = system: maximal electroshock-induced seizure (MES); set-up: method as in PMID 23291122, PMID 25226229, PMID 25090118; settings: mice, cited from earlier work
[5] = molecular target: batrachotoxin-binding site on voltage-gated sodium channels; set-up: method as in PMID 25226229, PMID 30594731, PMID 28824309; settings: read-out: Affinity towards Batrachotoxin-Binding Site on Sodium Channels IC50 ± SEM; cited from earlier work
mice [6] = system: mice; set-up: method as in PMID 23291122, PMID 25226229, PMID 25090118; settings: rotarod test (†), the values are: TD50, cited from earlier work

Cc1ccc(-n2c(-c3cccc(Cl)c3)n[nH]c2=S)cc1 [TP-10, 5-(3-Chlorophenyl)-4-(4-methylphenyl)-2,4-dihydro-3H-1,2,4-triazole-3-thione]
Anticonvulsant Activity in 6 Hz Test ED50 ± SEM ([1]; pretreatment time 15 min): 62.6 ± 13.2 mg/kg
Anticonvulsant Activity in 6 Hz Test ED50 ± SEM ([1]; pretreatment time 30 min): 61.1 ± 9.7 mg/kg
Anticonvulsant Activity in 6 Hz Test ED50 ± SEM ([1]; pretreatment time 60 min): 169.7 ± 18.5 mg/kg
Anticonvulsant Activity in 6 Hz Test ED50 ± SEM ([1]; pretreatment time 120 min): 167.6 ± 17.4 mg/kg
Papp at 180 min, 20 µg/mL [2]: 40.2 ± 5.1 ×10⁻⁶ cm/s
Neurotoxicity in Chimney or Rotarod (†) Tests in Mice (mice [3]; pretreatment time 15 min): 338.1 ± 12.0
Neurotoxicity in Chimney or Rotarod (†) Tests in Mice (mice [3]; pretreatment time 30 min): 338.1 ± 14.7
Neurotoxicity in Chimney or Rotarod (†) Tests in Mice (mice [3]; pretreatment time 60 min): 333.4 ± 18.6
Neurotoxicity in Chimney or Rotarod (†) Tests in Mice (mice [3]; pretreatment time 120 min): 395.1 ± 25.2
Anticonvulsant Activity in MES Test ED50 ± S.E. ([4]; pretreatment time 15 min): 57.0 ± 9.4 mg/kg
Anticonvulsant Activity in MES Test ED50 ± S.E. ([4]; pretreatment time 30 min): 74.5 ± 8.1 mg/kg
Anticonvulsant Activity in MES Test ED50 ± S.E. ([4]; pretreatment time 60 min): 187.1 ± 18.8 mg/kg
Anticonvulsant Activity in MES Test ED50 ± S.E. ([4]; pretreatment time 120 min): 281.4 ± 13.6 mg/kg

CCCCCCn1c(Cc2cccc(Cl)c2)n[nH]c1=S [TP-427, 5-(3-Chlorobenzyl)-4-hexyl-2,4-dihydro-3H-1,2,4-triazole-3-thione]
Anticonvulsant Activity in 6 Hz Test ED50 ± SEM ([1]; pretreatment time 15 min): 40.9 ± 6.4 mg/kg
Anticonvulsant Activity in 6 Hz Test ED50 ± SEM ([1]; pretreatment time 30 min): 46.6 ± 8.2 mg/kg
Anticonvulsant Activity in 6 Hz Test ED50 ± SEM ([1]; pretreatment time 60 min): 51.6 ± 6.9 mg/kg
Anticonvulsant Activity in 6 Hz Test ED50 ± SEM ([1]; pretreatment time 120 min): 64.9 ± 5.6 mg/kg
Papp at 180 min, 20 µg/mL [2]: 477 ± 39.6 ×10⁻⁶ cm/s
Neurotoxicity in Chimney or Rotarod (†) Tests in Mice (mice [3]; pretreatment time 15 min): >1000
Neurotoxicity in Chimney or Rotarod (†) Tests in Mice (mice [3]; pretreatment time 30 min): >1000
Neurotoxicity in Chimney or Rotarod (†) Tests in Mice (mice [3]; pretreatment time 60 min): 540.7 ± 20.9
Neurotoxicity in Chimney or Rotarod (†) Tests in Mice (mice [3]; pretreatment time 120 min): 548.5 ± 21.4
Anticonvulsant Activity in MES Test ED50 ± S.E. ([4]; pretreatment time 15 min): 72.1 ± 7.0 mg/kg
Anticonvulsant Activity in MES Test ED50 ± S.E. ([4]; pretreatment time 30 min): 74.5 ± 8.1 mg/kg
Anticonvulsant Activity in MES Test ED50 ± S.E. ([4]; pretreatment time 60 min): 83.6 ± 3.8 mg/kg
Anticonvulsant Activity in MES Test ED50 ± S.E. ([4]; pretreatment time 120 min): 97.9 ± 10.9 mg/kg
IC50 [5]: 6.17 ± 1.43 µM

CC(C)Cn1c(Cc2cccc(Cl)c2)n[nH]c1=S [TPR-22, 5-(3-Chlorobenzyl)-4-isobutyl-2,4-dihydro-3H-1,2,4-triazole-3-thione]
Papp at 180 min, 20 µg/mL [2]: 34.4 ± 8.3 ×10⁻⁶ cm/s
Anticonvulsant Activity in MES Test ED50 ± S.E. ([4]; pretreatment time 15 min): 130.4 ± 17.6 mg/kg
Anticonvulsant Activity in MES Test ED50 ± S.E. ([4]; pretreatment time 30 min): 130.4 ± 17.6 mg/kg
Anticonvulsant Activity in MES Test ED50 ± S.E. ([4]; pretreatment time 60 min): 159.9 ± 21.9 mg/kg
Anticonvulsant Activity in MES Test ED50 ± S.E. ([4]; pretreatment time 120 min): 195.7 ± 21.5 mg/kg
IC50 [5]: 18.9 ± 1.2 µM
Neurotoxicity in Chimney or Rotarod (†) Tests in Mice (mice [6]; pretreatment time 15 min): 306 ± 19.8 mg/kg
Neurotoxicity in Chimney or Rotarod (†) Tests in Mice (mice [6]; pretreatment time 30 min): 314 ± 22 mg/kg
Neurotoxicity in Chimney or Rotarod (†) Tests in Mice (mice [6]; pretreatment time 60 min): 326 ± 23.1 mg/kg
Neurotoxicity in Chimney or Rotarod (†) Tests in Mice (mice [6]; pretreatment time 120 min): 330 ± 24.2 mg/kg

CCCC(CCC)C(=O)O [Valproic acid, reference compound]
Papp at 180 min, 20 µg/mL [2]: 15.4 ± 4.71 ×10⁻⁶ cm/s
